Experimental data published in patent US10792275B2 (priority 2016, dated 2020).

Assays:
influenza virus [1] = assay: microbe, parasite or virus in culture; format: cell-based; settings: for Selectivity Index: CC50 divided by IC50; for IC50: unidentified influenza virus
H1N1 virus = assay: in vivo antiviral effect in mice infected with H1N1; settings: for survival rate: nasal administration
in vitro = settings: dog
water-solubility = format: physicochemical
[2] = test system: influenza viruses H1N1; H3N2; H5N1; H7N7; H7N9; H9N2; format: cell-based, influenza virus A; settings: 20, 5, 1.25, 0.31 μM; 24 h after inoculation; MOI 0.002; RT-qPCR
influenza H1N1 virus = format: cell-based, influenza virus A
H5N1 influenza virus = format: in vivo, BALB/c mice; settings: 1×LD50 dose of H5N1; nasal administration, 5 doses; PB2-39 2.5 mg/kg, zanamivir 20 μl of 2.5 mg/ml
influenza virus [3] = assay: lung viral load and histopathology in infected mice (PB2-39 study); settings: fourth day following inoculation
H7N9 virus = format: in vivo, BALB/c mice; settings: 1×LD80 dose of H7N9; nasal administration, 5 doses; PB2-39 2.5 mg/kg, zanamivir 20 μl of 2.5 mg/ml
[4] = 1×LD60 dose of H1N1, PB2-19 1 mg/kg
[5] = 1×LD60 dose of H1N1, PB2-19 1 mg/kg body weight
[6] = 5×LD50 dose of H1N1, 5 doses from 6 h after inoculation, PB2-39 2.5 mg/kg, zanamivir 20 μl of 2.5 mg/ml

SMILES	Selectivity Index (influenza virus [1])	IC50 (influenza virus [1]) [µM]	histopathological findings (H1N1 virus; [4])	viral proliferation in the lungs (H1N1 virus; [4])	survival rate (H1N1 virus; [5]) [%]	CC50 (in vitro) [µM]	water-solubility (water-solubility)	inhibition of replication of tested influenza strains [2]	reduction of the viral titer of supernatant (influenza H1N1 virus)	survival rate (H1N1 virus; [6]) [%]	survival rate (H5N1 influenza virus) [%]	amounts of viruses in lung tissues (influenza virus [3]; plaque assay, PB2-39 2.5 mg/kg nasal)	histopathological examination: interstitial inflammatory cell infiltration and alveolar injury (influenza virus [3]; lung tissues)	survival rate (H7N9 virus) [%]
Cc1cc(C(=O)Nc2ccc(I)cc2C(=O)O)ccc1[N+](=O)[O-] [PB2-19, 5-iodo-2-[(3-methyl-4-nitrobenzoyl)amino]benzoic acid]	273	0.55 ± 0.05	corroborated the ability of PB2-19 to provide in vivo anti-influenza effects	effectively reduce	100	150 ± 10	limited	–	–	–	–	–	–	–
Cc1ccc(C(c2c(O)c3ccccc3oc2=O)c2c(O)c3ccccc3oc2=O)cc1 [PB2-35, 3,3′-[(4-methylphenyl)methylene]bis(4-hydroxy-2H-chromen-2-one)]	40	1.24 ± 0.21	–	–	–	50 ± 5	–	–	–	–	–	–	–	–
O=c1oc2ccccc2c(O)c1C1c2c(c3ccccc3oc2=O)Oc2c1c(=O)oc1ccccc21 [PB2-39, 7-(4-hydroxy-2-oxo-2H-chromen-3-yl)-6H,7H,8Hchromeno[3,4′:5,6]pyrano[3,2-c]chromene-6,8-dione]	–	1.22 ± 0.23	–	–	–	> 1000	–	inhibited the replication of all the tested influenza strains in a dose-dependent manner	100-1000 times	100	100	significantly reduced	improvement	100
CC(=O)N[C@H]1[C@H]([C@H](O)[C@H](O)CO)OC(C(=O)O)=C[C@@H]1N=C(N)N [zanamivir, reference compound]	–	–	–	–	100	–	–	–	–	100	100	–	–	100
